Results as given in PubChem BioAssay AID330 (DTP/NCI, 2004).
Where “and” joins values, the source holds several entries; their conditions need not be identical. Equal values may be shown once. Inconclusive results and toxic doses are left out. The calls were made as follows: active = survival T/C of 150% or more; inactive = T/C below 125% in these data. Peptide text beside a SMILES is read from it. * marks the point of attachment. Cbz = O=C(OCc1ccccc1)*; OtBu = CC(C)(C)O*

Tested on: P388 leukemia ip, CD2F1 mice, survival T/C
Experiment: NCI In Vivo Anticancer Drug Screen. Data for tumor model P388 Leukemia (intraperitoneal) in CD2F1 (CDF1) mice
Conditions: endpoint: median survival time, higher = longer survival
In short: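 Mice carrying the transplanted tumor received test compound or vehicle. Survival was recorded in each group, and the value is the treated-group measurement divided by that of the vehicle-treated control group.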

[1] = dose: 100.0 mg/kg/injection, schedule: Q01DX001 (ip), vehicle: Klucel (hydroxypropylcellulose) (HPC)
[2] = dose: 200.0 mg/kg/injection, schedule: Q01DX001 (ip), vehicle: Klucel (hydroxypropylcellulose) (HPC)
[3] = dose: 100.0 mg/kg/injection, schedule: Q04DX003 (ip), vehicle: Klucel (hydroxypropylcellulose) (HPC)
[4] = dose: 100.0 mg/kg/injection, schedule: Q01DX001 (ip), vehicle: saline with Tween-80
[5] = dose: 50.0 mg/kg/injection, schedule: Q01DX005 (ip), vehicle: saline with Tween-80
[6] = dose: 100.0 mg/kg/injection, schedule: Q01DX005 (ip), vehicle: saline with Tween-80
[7] = dose: 200.0 mg/kg/injection, schedule: Q01DX005 (ip), vehicle: saline with Tween-80
[8] = dose: 12.5 mg/kg/injection, schedule: Q01DX009 (ip), vehicle: saline with Tween-80
[9] = dose: 25.0 mg/kg/injection, schedule: Q01DX009 (ip), vehicle: saline with Tween-80
[10] = dose: 50.0 mg/kg/injection, schedule: Q01DX009 (ip), vehicle: saline with Tween-80
[11] = dose: 100.0 mg/kg/injection, schedule: Q01DX009 (ip), vehicle: saline with Tween-80
[12] = dose: 50.0 mg/kg/injection, schedule: Q01DX009 (ip), vehicle: Klucel (hydroxypropylcellulose) (HPC)
[13] = dose: 100.0 mg/kg/injection, schedule: Q01DX009 (ip), vehicle: Klucel (hydroxypropylcellulose) (HPC)
[14] = dose: 200.0 mg/kg/injection, schedule: Q01DX009 (ip), vehicle: Klucel (hydroxypropylcellulose) (HPC)
[15] = dose: 6.25 mg/kg/injection, schedule: Q01DX009 (ip), vehicle: saline with Tween-80
[16] = dose: 200.0 mg/kg/injection, schedule: Q01DX009 (ip), vehicle: saline with Tween-80

Measured: T/C

CNC(=O)n1nc(C)cc1C
inactive: dose: 50.0 mg/kg/injection, schedule: Q01DX005 (ip), vehicle: distilled water + alcohol 108 % of control | dose: 100.0 mg/kg/injection, schedule: Q01DX005 (ip), vehicle: distilled water + alcohol 102 % of control | dose: 200.0 mg/kg/injection, schedule: Q01DX005 (ip), vehicle: distilled water + alcohol 108 % of control

C=CCNC(=O)/C(C)=C(/C)c1ccccc1
inactive: [1] 100 % of control | [2] 104 % of control | dose: 400.0 mg/kg/injection, schedule: Q01DX001 (ip), vehicle: Klucel (hydroxypropylcellulose) (HPC) 99 % of control

COC(=O)C1CC2CCCCC2C1C(=O)OC (centres undefined)
inactive: [3] 89 % of control | dose: 200.0 mg/kg/injection, schedule: Q04DX003 (ip), vehicle: Klucel (hydroxypropylcellulose) (HPC) 87 % of control | dose: 400.0 mg/kg/injection, schedule: Q04DX003 (ip), vehicle: Klucel (hydroxypropylcellulose) (HPC) 89 % of control

CC[C@@H]1C[C@H]2CC3c4[nH]c5ccc(O)cc5c4CCN(C2)C31
inactive: [4] 99 % of control

CC(C)CC(NC(=O)C(Cc1ccccc1)NC(=O)C1CCCN1C(=O)OCc1ccccc1)C(=O)OC(C)(C)C (stereo not drawn) (Cbz-Pro-Phe-Leu-OtBu; configuration not given here)
inactive: [5] 100 % of control | [6] 100 % of control | [7] 91 % of control

CCCCCCCN(CCCCCCC)CC(O)c1cc2ccccc2c2cc(Br)ccc12 (centres undefined)
inactive: [5] 109 % of control | [6] 104 % of control | [7] 99 % of control

Cc1cc(C)n(C2=NCCN2)n1
inactive: dose: 60.0 mg/kg/injection, schedule: Q01DX005 (ip), vehicle: saline 99 % of control | dose: 120.0 mg/kg/injection, schedule: Q01DX005 (ip), vehicle: saline 96 % of control

O=Cc1ccc([N+](=O)[O-])[nH]1
inactive: [8] 92 % of control | [9] 87 % of control | [10] 92 % of control | [11] 86 % of control

CCNCCn1cccc1
inactive: dose: 50.0 mg/kg/injection, schedule: Q04DX003 (ip), vehicle: saline 91 % of control | dose: 100.0 mg/kg/injection, schedule: Q04DX003 (ip), vehicle: saline 95 % of control | dose: 200.0 mg/kg/injection, schedule: Q04DX003 (ip), vehicle: saline 95 % of control

O=C(OC1CSC=CSC1)c1ccccc1
inactive: [12] 104 % of control | [13] 109 % of control | [14] 110 % of control

O=C(N=C1SC(=NC2CCCCC2)N1C1CCCCC1)c1ccccc1
inactive: [1] 95 % of control | [2] 100 % of control

C=C1C(C2(C)C=CC(=O)OC3(C)COC(=O)CC32)C(OC=O)C(OC(=O)C(O)C(C)CC)C2(C)C(c3ccoc3)CC(OC(C)=O)C12O (centres undefined)
inactive: dose: 5.0 mg/kg/injection, schedule: Q01DX005 (ip), vehicle: Klucel (hydroxypropylcellulose) (HPC) 96 % of control | dose: 10.0 mg/kg/injection, schedule: Q01DX005 (ip), vehicle: Klucel (hydroxypropylcellulose) (HPC) 98 % of control and 96 % of control | dose: 20.0 mg/kg/injection, schedule: Q01DX005 (ip), vehicle: Klucel (hydroxypropylcellulose) (HPC) 91 % of control and 95 % of control | dose: 40.0 mg/kg/injection, schedule: Q01DX005 (ip), vehicle: Klucel (hydroxypropylcellulose) (HPC) 95 % of control and 96 % of control | dose: 80.0 mg/kg/injection, schedule: Q01DX005 (ip), vehicle: Klucel (hydroxypropylcellulose) (HPC) 102 % of control | dose: 160.0 mg/kg/injection, schedule: Q01DX005 (ip), vehicle: Klucel (hydroxypropylcellulose) (HPC) 87 % of control

CNc1ccc(Nc2cccc(C)c2)c2c1C(=O)c1ccccc1C2=O
inactive: [12] 100 % of control | [13] 91 % of control | [14] 113 % of control

CN(C)CC(O)c1ccc2cc(Br)c3ccccc3c2c1 (centres undefined)
inactive: dose: 12.5 mg/kg/injection, schedule: Q01DX005 (ip), vehicle: saline with Tween-80 97 % of control | dose: 25.0 mg/kg/injection, schedule: Q01DX005 (ip), vehicle: saline with Tween-80 106 % of control | [5] 100 % of control and 97 % of control

Cc1[c-]onc1C.Cc1[c-]onc1C.[Ag].[Ag].[NH-]S(=O)(=O)c1ccc(N=Nc2cc(N=Nc3ccc(S([NH-])(=O)=O)cc3)c3c(NC(=O)C(Cl)Cl)cccc3c2OC(=O)C(Cl)Cl)cc1
inactive: dose: 3.13 mg/kg/injection, schedule: Q01DX009 (ip), vehicle: saline with Tween-80 91 % of control | [15] 89 % of control | [9] 89 % of control | [10] 99 % of control

O=[N+]([O-])C1CCC(O)C([N+](=O)[O-])C1 (centres undefined) (tested in a mixture with another compound)
inactive: [15] 100 % of control | [8] 96 % of control | [9] 99 % of control

NC(=O)c1cncc(CCC(O)C(=O)O)c1 (centres undefined)
inactive: dose: 25.0 mg/kg/injection, schedule: Q04DX003 (ip), vehicle: Klucel (hydroxypropylcellulose) (HPC) 96 % of control | dose: 50.0 mg/kg/injection, schedule: Q04DX003 (ip), vehicle: Klucel (hydroxypropylcellulose) (HPC) 91 % of control | [3] 100 % of control

O=C(Nc1ccccc1)Sc1nnc2c3ccccc3c3ccccc3c2n1
inactive: [10] 100 % of control | [11] 101 % of control | [16] 99 % of control

COc1ccc2ccc3c(c2c1)C(=O)CC3
inactive: dose: 12.5 mg/kg/injection, schedule: Q01DX009 (ip), vehicle: distilled water + Tween-80 101 % of control | dose: 25.0 mg/kg/injection, schedule: Q01DX009 (ip), vehicle: distilled water + Tween-80 98 % of control | dose: 50.0 mg/kg/injection, schedule: Q01DX009 (ip), vehicle: distilled water + Tween-80 107 % of control | dose: 100.0 mg/kg/injection, schedule: Q01DX009 (ip), vehicle: distilled water + Tween-80 98 % of control | dose: 200.0 mg/kg/injection, schedule: Q01DX009 (ip), vehicle: distilled water + Tween-80 98 % of control

CCOP(O)(=S)OCC.[Ti]
inactive: [12] 96 % of control | [13] 101 % of control | [14] 92 % of control

COc1ccc(/C=N/Nc2nnc3c4cccnc4c4ccccc4c3n2)cc1OC
inactive: dose: 3.12 mg/kg/injection, schedule: Q01DX001 (ip), vehicle: saline with Tween-80 102 % of control and 87 % of control | dose: 6.25 mg/kg/injection, schedule: Q01DX001 (ip), vehicle: saline with Tween-80 100 % of control and 87 % of control | dose: 50.0 mg/kg/injection, schedule: Q01DX001 (ip), vehicle: saline with Tween-80 104 % of control and 112 % of control | [4] 100 % of control and 111 % of control | dose: 200.0 mg/kg/injection, schedule: Q01DX001 (ip), vehicle: saline with Tween-80 106 % of control and 114 % of control | dose: 400.0 mg/kg/injection, schedule: Q01DX001 (ip), vehicle: saline with Tween-80 107 % of control

CCOC(OCC)c1ccc(C)cc1
inactive: dose: 100.0 mg/kg/injection, schedule: Q04DX003 (ip), vehicle: saline with Tween-80 103 % of control | dose: 200.0 mg/kg/injection, schedule: Q04DX003 (ip), vehicle: saline with Tween-80 108 % of control | dose: 400.0 mg/kg/injection, schedule: Q04DX003 (ip), vehicle: saline with Tween-80 97 % of control

O=C(Nc1ccccc1)N1CCOCC1
inactive: dose: 60.0 mg/kg/injection, schedule: Q01DX005 (ip), vehicle: saline with Tween-80 106 % of control | dose: 120.0 mg/kg/injection, schedule: Q01DX005 (ip), vehicle: saline with Tween-80 103 % of control | dose: 240.0 mg/kg/injection, schedule: Q01DX005 (ip), vehicle: saline with Tween-80 95 % of control

COc1ccc(/C=C/c2nnc(N)o2)cc1
inactive: [5] 100 % of control | [6] 101 % of control | [7] 105 % of control

CN(CCC[NH-])CCC[NH-].[Cl][Pd][Cl]
inactive: dose: 25.0 mg/kg/injection, schedule: Q04DX002 (ip), vehicle: saline 102 % of control | dose: 50.0 mg/kg/injection, schedule: Q04DX002 (ip), vehicle: saline 102 % of control | dose: 100.0 mg/kg/injection, schedule: Q04DX002 (ip), vehicle: saline 98 % of control

c1ccc(NSc2ccccc2)cc1
inactive: dose: 25.0 mg/kg/injection, schedule: Q01DX009 (ip), vehicle: Klucel (hydroxypropylcellulose) (HPC) 119 % of control | [9] 100 % of control | [12] 103 % of control and 119 % of control | [10] 98 % of control | [13] 101 % of control and 121 % of control | [11] 109 % of control | [14] 106 % of control | [16] 100 % of control
